These are literature values, as cited in patent publication US20150017236A1, “PHARMACEUTICAL COMPOSITIONS OF THYROID HORMONE” (priority 2013, published 2015).

For the data set the following is noted: tablet formulation of levothyroxine sodium; storage.

Regarding `N[C@@H](Cc1cc(I)c(Oc2cc(I)c(O)c(I)c2)c(I)c1)C(=O)O` [levothyroxine sodium, sodium (S)-2-amino-3-[4-(4-hydroxy-3,5-diiodphenoxy)-3,5-diiodophenyl]propionate], the decomposition of levothyroxine entry was “approximately 1 percent per month”.
